In ChEMBL document CHEMBL5390237, “Discovery of Selective Histone Deacetylase 1 and 2 Inhibitors: Screening of a Focused Library Constructed by Click Chemistry, Kinetic Binding Analysis, and Biological Evaluation” (J Med Chem, 2023) one finds inhibition data, which are given here for 60 compounds.

Each structure is given as a SMILES string.

Histone deacetylase 2, sequence (Q92769 whole entry): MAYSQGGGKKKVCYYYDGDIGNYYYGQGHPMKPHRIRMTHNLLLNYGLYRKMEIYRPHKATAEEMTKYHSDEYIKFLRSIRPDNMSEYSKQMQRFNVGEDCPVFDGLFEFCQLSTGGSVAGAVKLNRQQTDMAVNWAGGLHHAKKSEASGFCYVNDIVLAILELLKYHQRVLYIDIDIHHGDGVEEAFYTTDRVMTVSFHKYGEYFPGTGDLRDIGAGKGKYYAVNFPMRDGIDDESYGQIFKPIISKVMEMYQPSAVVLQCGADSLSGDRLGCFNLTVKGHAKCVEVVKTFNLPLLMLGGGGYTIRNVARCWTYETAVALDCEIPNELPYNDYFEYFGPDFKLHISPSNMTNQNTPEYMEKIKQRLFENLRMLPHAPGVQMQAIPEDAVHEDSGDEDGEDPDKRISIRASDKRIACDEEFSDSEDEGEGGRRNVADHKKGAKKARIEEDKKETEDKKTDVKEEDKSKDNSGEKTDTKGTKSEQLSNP

This assay addresses Histone deacetylase 2 (Homo sapiens, UniProt Q92769). The assay can be described thus: Inhibition of full-length recombinant human C-terminal GST tagged HDAC2 expressed in Sf9 insect cells using aminoluciferin peptide substrate at 100 nM preincubated for 3 hrs followed by substrate addition and measured after 30 mins by HDAC-Glo I/II chemiluminescence assay. Particulars: time 3.5 hrs.
Usually inhibition stands for the relative decrease from the control value, in per cent. `Cc1cccc(C)c1NC(=O)Cn1cc(C(=O)Nc2cc(-c3cccs3)ccc2N)nn1`: the inhibition was 21%. `Nc1ccc(-c2cccs2)cc1NC(=O)c1cccc(-c2cn(CCCc3ccccc3)nn2)c1`: the inhibition worked out at 4%. Consider `Nc1ccc(-c2cccs2)cc1NC(=O)c1cccc(-c2cn(-c3ccc(I)cc3)nn2)c1`, for which the inhibition worked out at 7%. On to `Nc1ccc(-c2cccs2)cc1NC(=O)c1ccc(-c2cn(CC(=O)Nc3ccc(F)cc3)nn2)s1`, for which the inhibition is 23%.

On to `Nc1ccc(-c2cccs2)cc1NC(=O)CCc1cn(-c2ccc(I)cc2)nn1`, for which the inhibition was found to be 8%. Regarding `Nc1ccc(-c2ccc(F)cc2)cc1NC(=O)CCc1cn(CCc2ccccc2C(F)(F)F)nn1`, the inhibition worked out at 0%.

Turning to `Nc1ccc(-c2cccs2)cc1NC(=O)c1ccc(-c2cn(CCCCCCC(=O)O)nn2)s1`, the inhibition is 28%. Next, `Nc1ccc(-c2cccs2)cc1NC(=O)c1ccc(-c2cn(CCc3ccc(C(=O)O)cc3)nn2)s1`: 55%; `Cc1ccc(-n2cc(C(=O)Nc3cc(-c4ccccc4)ccc3N)nn2)cc1C`: 0%; `Nc1ccc(-c2ccc(F)cc2)cc1NC(=O)c1cn(CCc2cccc3ccccc23)nn1`: 0%. Then `Nc1ccc(-c2cccs2)cc1NC(=O)c1ccc(-c2cn(CCc3ccsc3)nn2)cc1`, with 26%; and `Nc1ccc(-c2cccs2)cc1NC(=O)c1cn(Cc2ccc(OC(F)(F)F)cc2)nn1`, with 14%. In the case of `Nc1ccc(-c2cccnc2)cc1NC(=O)CCc1cn(CCCCCc2ccccc2)nn1`, the inhibition turned out to be 16%. With `Nc1ccc(-c2ccsc2)cc1NC(=O)c1cn(CC2CCCCC2)nn1`, the inhibition was 0%. Next, `Nc1ccc(-c2cccs2)cc1NC(=O)CCc1cn(CCC2CCCCC2)nn1`: 4%. With `COc1ccc(Cn2cc(CCC(=O)Nc3cc(-c4cccs4)ccc3N)nn2)cc1`, the inhibition amounted to 10%. Then `Cc1cccc(CCn2cc(C(=O)Nc3cc(-c4ccsc4)ccc3N)nn2)c1`, with 7%. Then `Nc1ccc(-c2cccs2)cc1NC(=O)c1ccc(-c2cn(CCc3ccc([N+](=O)[O-])cc3)nn2)s1`, with 23%; and `Nc1ccc(-c2ccccc2)cc1NC(=O)c1cn(CCc2ccc(F)cc2)nn1`, with 0%; and `Nc1ccc(-c2cccs2)cc1NC(=O)c1ccc(-c2cn(CCc3ccccc3C(F)(F)F)nn2)s1`, with 0%. For `Nc1ccc(-c2ccc(F)cc2)cc1NC(=O)c1cn(CC(=O)Nc2ccc(F)cc2)nn1`, the inhibition came to 32%. As to `Nc1ccc(-c2cccs2)cc1NC(=O)c1ccc(-c2cn(CC(=O)Nc3ccc(F)cc3)nn2)cc1`, the inhibition was 50%.

With `Nc1ccc(-c2cccs2)cc1NC(=O)c1ccc(-c2cn(CCC34CC5CC(CC(C5)C3)C4)nn2)s1`, the inhibition turned out to be 0%.

In the case of `Nc1ccc(-c2ccccc2)cc1NC(=O)c1cn(-c2ccc(I)cc2)nn1`, the inhibition was determined as 0%. With `Nc1ccc(-c2ccsc2)cc1NC(=O)c1cn(Cc2ccc(-c3ccccc3)cc2)nn1`, the inhibition turned out to be 0%. For the compound `Nc1ccc(-c2ccsc2)cc1NC(=O)CCc1cn(-c2ccc(Br)cc2)nn1`, the inhibition is 3%. For the compound `Nc1ccc(-c2ccsc2)cc1NC(=O)CCc1cn(CC23CC4CC(CC(C4)C2)C3)nn1`, the inhibition was 0%.

As for `Nc1ccc(-c2ccccc2)cc1NC(=O)c1cn(CC2CCCCC2)nn1`, the inhibition was 0%.

As to `Nc1ccc(-c2cccs2)cc1NC(=O)c1ccc(-c2cn(CCN3CCOCC3)nn2)cc1`, the inhibition was 75%. `Nc1ccc(-c2cccnc2)cc1NC(=O)CCc1cn(Cc2ccc(Oc3ccccc3)cc2)nn1`: the inhibition stood at 0%. Then `Nc1ccc(-c2cccs2)cc1NC(=O)c1cccc(-c2cn(CCc3cccc([N+](=O)[O-])c3)nn2)c1`, with 4%. In the case of `Nc1ccc(-c2cccnc2)cc1NC(=O)CCc1cn(CCCCC(=O)O)nn1`, the inhibition was 0%. As for `Nc1ccc(-c2ccc(F)cc2)cc1NC(=O)c1cn(CCc2cccc(Cl)c2)nn1`, the inhibition was determined as 0%. Regarding `Cc1cccc(C)c1NC(=O)Cn1cc(-c2ccc(C(=O)Nc3cc(-c4cccs4)ccc3N)s2)nn1`, the inhibition worked out at 48%.

As to `Nc1ccc(-c2ccc(F)cc2)cc1NC(=O)CCc1cn(-c2cccc3ccccc23)nn1`, the inhibition came out at 0%. For the compound `Nc1ccc(-c2cccs2)cc1NC(=O)c1ccc(-c2cn(CCCc3ccccc3)nn2)s1`, the inhibition was 16%. Then `Cc1csc(CCn2cc(C(=O)Nc3cc(-c4cccs4)ccc3N)nn2)n1`, with 15%. For the compound `Cc1ccc(CCn2cc(CCC(=O)Nc3cc(-c4ccsc4)ccc3N)nn2)cc1`, the inhibition turned out to be 24%.

Consider `Nc1ccc(-c2cccs2)cc1NC(=O)c1ccc(-c2cn(-c3ccc(Br)cc3)nn2)s1`, for which the inhibition came to 0%. For the compound `Nc1ccc(-c2ccc(F)cc2)cc1NC(=O)c1cn(CCc2ccc([N+](=O)[O-])cc2)nn1`, the inhibition is 12%. `Nc1ccc(-c2ccsc2)cc1NC(=O)c1cn(CCc2cccc(C(F)(F)F)c2)nn1`: the inhibition stood at 0%. As for `Nc1ccc(-c2ccsc2)cc1NC(=O)c1cn(CCc2ccc([N+](=O)[O-])cc2)nn1`, the inhibition amounted to 0%. As to `Cc1cccc(C)c1NC(=O)Cn1cc(-c2cccc(C(=O)Nc3cc(-c4cccs4)ccc3N)c2)nn1`, the inhibition was 8%. Consider `Nc1ccc(-c2ccc(F)cc2)cc1NC(=O)CCc1cn(CCC2CCCCC2)nn1`, for which the inhibition was 2%.

Turning to `Nc1ccc(-c2cccs2)cc1NC(=O)c1ccc(-c2cn(Cc3ccc(Oc4ccccc4)cc3)nn2)cc1`, the inhibition worked out at 0%. Then `Nc1ccc(-c2ccc(F)cc2)cc1NC(=O)c1cn(CCCCCCC(=O)O)nn1`, with 23%; and `Nc1ccc(-c2ccc(F)cc2)cc1NC(=O)c1cn(CCc2ccccc2)nn1`, with 17%. Next, `Nc1ccc(-c2cccs2)cc1NC(=O)c1cn(CCc2ccccn2)nn1`: 0%. Next, `Cc1ccccc1CCn1cc(CCC(=O)Nc2cc(-c3cccnc3)ccc2N)nn1`: 0%. As to `Nc1ccc(-n2cc(C(=O)Nc3cc(-c4ccc(F)cc4)ccc3N)nn2)cc1`, the inhibition is 42%. Next, `Nc1ccc(-c2ccsc2)cc1NC(=O)c1cn(CCc2ccccn2)nn1`: 1%. Then `Nc1ccc(-c2cccnc2)cc1NC(=O)CCc1cn(CCc2ccc(C(=O)O)cc2)nn1`, with 9%. On to `Nc1ccc(-c2ccccc2)cc1NC(=O)c1cn(CCc2c[nH]c3ccccc23)nn1`, for which the inhibition came out at 0%. As for `Nc1ccc(-c2cccs2)cc1NC(=O)CCc1cn(CCc2ccc(Cl)cc2)nn1`, the inhibition came to 24%. `Nc1ccc(-c2cccs2)cc1NC(=O)c1ccc(-c2cn(Cc3ccc4ccccc4n3)nn2)cc1`: the inhibition was found to be 52%. For `Nc1ccc(-c2cccnc2)cc1NC(=O)CCc1cn(CCc2cccc([N+](=O)[O-])c2)nn1`, the inhibition was determined as 15%.

Take `Nc1ccc(-c2cccs2)cc1NC(=O)c1ccc(-c2cn(Cc3cccc(C(=O)O)c3)nn2)cc1`: the inhibition came to 0%. On to `Nc1ccc(-c2cccs2)cc1NC(=O)c1cn(CCc2ccc(C(F)(F)F)cc2)nn1`, for which the inhibition amounted to 9%. Then `Nc1ccc(-c2cccs2)cc1NC(=O)c1cccc(-c2cn(CS(=O)(=O)c3ccccc3)nn2)c1`, with 3%; and `Nc1ccc(-c2ccsc2)cc1NC(=O)CCc1cn(CCc2ccc(Cl)cc2)nn1`, with 2%.
